Test results: article PMC10762035, “Molecular basis of human trace amine-associated receptor 1 activation” (Nature Communications, 2024)
Substitutions are numbered along the chain they refer to. Values joined by “and” are separate entries in the source; they are usually repeats but may differ in a detail not shown here. Identical values can stand only once.

Key:
Assay type in all cases: cell-based
hTA1 T271N = target: T1, hTA1 T271N (Homo sapiens, UniProt Q96RJ0, T271N); experiment: GloSensor cAMP accumulation assay, T271N mutant
T1 construct: expressed in transfected cells; host or cells: HEK293T
T1 sequence (Q96RJ0 1-339 T271N): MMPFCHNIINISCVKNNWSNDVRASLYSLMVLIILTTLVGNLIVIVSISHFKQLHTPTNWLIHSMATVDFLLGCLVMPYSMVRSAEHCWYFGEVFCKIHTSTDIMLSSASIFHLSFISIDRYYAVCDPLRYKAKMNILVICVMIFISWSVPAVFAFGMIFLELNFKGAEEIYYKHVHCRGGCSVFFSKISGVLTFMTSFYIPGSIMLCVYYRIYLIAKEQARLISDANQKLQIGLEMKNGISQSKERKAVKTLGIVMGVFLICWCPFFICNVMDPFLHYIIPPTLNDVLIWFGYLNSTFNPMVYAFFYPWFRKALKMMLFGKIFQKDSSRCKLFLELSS

hTA1 V184P = target: T2, hTA1 V184P (Homo sapiens, UniProt Q96RJ0, V184P); experiment: GloSensor cAMP accumulation assay, V184P mutant; conditions: for cAMP accumulation response, single replicate values (source data, Supplementary Figure 5): hTA1 V184P (N=2), log[Compound]
T2 construct: expressed in transfected cells; host or cells: HEK293T
T2 sequence (Q96RJ0 1-339 V184P): T1 sequence (Q96RJ0 1-339 T271N) with V184P, N271T

hTA1 W264F = target: T3, hTA1 W264F (Homo sapiens, UniProt Q96RJ0, W264F); experiment: GloSensor cAMP accumulation assay, W264F mutant;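 further: cells transiently transfected with receptor plus GloSensor, luminescence read 30 min after agonist addition at room temperature, concentration-response curves fitted by log(agonist) vs response regression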
T3 construct: expressed in transfected cells; host or cells: HEK293T
T3 sequence (Q96RJ0 1-339 W264F): T1 sequence (Q96RJ0 1-339 T271N) with W264F, N271T

hTA1 C88/178S = target: T4, hTA1 C88/178S (Homo sapiens, UniProt Q96RJ0, C178S/C88S); experiment: GloSensor cAMP accumulation assay, C88S/C178S double mutant; conditions: for Normalized Luminescence Counts (N=2): log[Compound], single replicate values
T4 construct: expressed in transfected cells; host or cells: HEK293T
T4 sequence (Q96RJ0 1-339 C88S/C178S): T1 sequence (Q96RJ0 1-339 T271N) with C88S, C178S, N271T

[1] = C88S, C178S, each row is one independent experiment, 3 replicates

## NCCc1ccc(Oc2ccc(O)cc2)c(I)c1 [T1AM, 3-iodothyronamine]
hTA1 T271N; T271N mutant minus WT average, Figure 5B
  ΔpEC50 values (each mutant value - WT average), Mean: 0.1858 and 0.05902
hTA1 T271N; T271N mutant, Figure 5B, each row one independent experiment (3 replicates)
  pEC50 values, Mean: 6.315 and 6.188
hTA1 T271N; T271N mutant, Figure 5B, β-PEA = 100, each row one independent experiment (3 replicates)
  Emax values, Mean: 147.043 and 92.5588
hTA1 T271N; T271N, n=2
  pEC50 ± SEM: 6.25 ± 0.03
hTA1 T271N; T271N, n=2, read-out: EC50
  EC50: 560 nM
hTA1 T271N; T271N, relative to β-PEA
  Emax: 119.8%
hTA1 V184P; V184P, n=2
  Span ± SEM (Emax normalized to β-PEA): 70.26
  pEC50 ± SEM: 6.27 ± 0.05
hTA1 V184P; V184P, n=2, read-out: EC50
  EC50: 539 nM
hTA1 V184P; M = -5
  cAMP accumulation response, single replicate values (source data, Supplementary Figure 5): 47.1774 and 43.1039 and 48.2443 and 102.347 and 62.5054 and 96.189
hTA1 V184P; M = -5.522
  cAMP accumulation response, single replicate values (source data, Supplementary Figure 5): 32.0474 and 39.1275 and 36.5088 and 86.7693 and 72.5115 and 76.5066
hTA1 V184P; M = -6
  cAMP accumulation response, single replicate values (source data, Supplementary Figure 5): 40.0973 and 27.683 and 25.5492 and 73.6844 and 54.6984 and 67.6001
hTA1 V184P; M = -6.522
  cAMP accumulation response, single replicate values (source data, Supplementary Figure 5): 14.9776 and 12.068 and 13.8138 and 37.1052 and 29.2983 and 35.6391
hTA1 V184P; M = -7
  cAMP accumulation response, single replicate values (source data, Supplementary Figure 5): 5.085 and 5.182 and 3.9211 and 15.2237 and 21.0881 and 16.0667
hTA1 V184P; M = -7.522
  cAMP accumulation response, single replicate values (source data, Supplementary Figure 5): -0.4433 and -1.4132 and 0.1386 and 3.678 and 3.238 and 3.861
hTA1 V184P; M = -8
  cAMP accumulation response, single replicate values (source data, Supplementary Figure 5): -0.9283 (2×) and -1.51 and 5.3642 and 2.908 and 3.861
hTA1 V184P; M = -8.522
  cAMP accumulation response, single replicate values (source data, Supplementary Figure 5): -1.316 and -1.607 and -1.51 and 1.809 and 2.2854 and 1.442
hTA1 V184P; M = -9
  cAMP accumulation response, single replicate values (source data, Supplementary Figure 5): -1.704 (2×) and -1.801 and 1.442 and -0.5735 and 0.4894
hTA1 V184P; M = -9.522
  cAMP accumulation response, single replicate values (source data, Supplementary Figure 5): -1.4132 and -1.801 and -1.607 and 0.3795 and -0.4269 and 0.5994
hTA1 V184P; M = -10
  cAMP accumulation response, single replicate values (source data, Supplementary Figure 5): -1.51 and -1.801 (2×) and 1.149 and -0.207 and 0.01294
hTA1 V184P; M = -10.522
  cAMP accumulation response, single replicate values (source data, Supplementary Figure 5): -1.316 and -1.607 (2×) and -0.2803 and 0.08625 and -1.233
hTA1 V184P; M = -11
  cAMP accumulation response, single replicate values (source data, Supplementary Figure 5): -1.801 and -1.122 and -1.4132 and 0.746 and 0.7093 and 0.1596
hTA1 V184P; M = -11.522
  cAMP accumulation response, single replicate values (source data, Supplementary Figure 5): -1.316 and -1.025 and -1.4132 and 0.636 and 1.039 and -0.3169
hTA1 V184P; M = -12
  cAMP accumulation response, single replicate values (source data, Supplementary Figure 5): -1.801 and -1.122 and -1.219 and -0.4635 and 0.9659 and -0.1337
hTA1 V184P; M = -12.522
  cAMP accumulation response, single replicate values (source data, Supplementary Figure 5): -1.219 and -0.7343 and -1.607 and 0.0496 and -0.3536 and -0.6468
hTA1 V184P; hTA1 V184P mutant minus WT average
  ΔpEC50 values (each mutant value - WT average), Mean: 0.071 and 0.2071
hTA1 V184P; hTA1 V184P mutant, Figure 3B source data, each grid row a separate experiment, 3 replicates
  pEC50 values, Mean: 6.2 and 6.336
hTA1 V184P; hTA1 V184P mutant, β-PEA set to 100, each grid row a separate experiment, 3 replicates
  Emax values, Mean: 49.3182 and 91.2084
hTA1 W264F; W246F mutant (so in the source) minus WT average
  ΔEmax values (each mutant value - WT average): -30.8369
hTA1 W264F; W246F mutant (so in the source), β-PEA = 100, each line an independent experiment, 3 replicates
  Emax values, Mean: 17.7915
hTA1 W264F; W264F, n=2
  Span ± SEM (Emax normalized to β-PEA): 28.7 ± 10.91
  pEC50 ± SEM: 4.95 ± 0.97
hTA1 W264F; W264F, n=2, read-out: EC50
  EC50: 11300 nM
hTA1 C88/178S; C88/178S, n=2
  Span ± SEM (Emax normalized to β-PEA): 98.9 ± 13.16
  pEC50 ± SEM: 5.96 ± 0.05
hTA1 C88/178S; C88/178S, n=2, read-out: EC50
  EC50: 1090 nM
hTA1 C88/178S; [1]
  pEC50 values, Mean: 6.084 and 5.841
  ΔEmax values (each mutant value - WT average), Mean: 15.2915 and 41.6133
  ΔpEC50 values (each mutant value - WT average), Mean: -0.04547 and -0.2881
hTA1 C88/178S; C88S, C178S, M = -5
  Normalized Luminescence Counts (N=2): 73.2176 and 97.3588 and 72.5957 and 103.925 and 90.4821 and 104.378
hTA1 C88/178S; C88S, C178S, M = -5.522
  Normalized Luminescence Counts (N=2): 67.1681 and 64.6805 and 64.737 and 67.222 and 55.8941 and 86.253
hTA1 C88/178S; C88S, C178S, M = -6
  Normalized Luminescence Counts (N=2): 53.4297 and 44.4403 and 51.5074 and 51.9671 and 38.3735 and 50.6077
hTA1 C88/178S; C88S, C178S, M = -6.522
  Normalized Luminescence Counts (N=2): 23.5782 and 23.1825 and 20.8079 and 20.0978 and 14.6604 and 27.0456
hTA1 C88/178S; C88S, C178S, M = -7
  Normalized Luminescence Counts (N=2): 11.3097 and 9.048 and 12.1012 and 6.655 and 6.504 and 10.7333
hTA1 C88/178S; C88S, C178S, M = -7.522
  Normalized Luminescence Counts (N=2): 2.433 and 2.8292 and 3.225 and 0.6137 and -1.652 and -0.1415
hTA1 C88/178S; C88S, C178S, M = -8
  Normalized Luminescence Counts (N=2): 0.6808 and 0.7373 and 1.19 and -0.1415 and -0.2925 and 0.9158
hTA1 C88/178S; C88S, C178S, M = -8.522
  Normalized Luminescence Counts (N=2): 0.7373 and 0.7939 and 0.285 and -1.501 and 0.1606 and -0.4436
hTA1 C88/178S; C88S, C178S, M = -9
  Normalized Luminescence Counts (N=2): 0.4547 (2×) and 1.981 and -1.199 and -2.558 and -1.652
hTA1 C88/178S; C88S, C178S, M = -9.522
  Normalized Luminescence Counts (N=2): 0.285 (2×) and 0.2285 and -0.4436 and -2.105 and -1.199
hTA1 C88/178S; C88S, C178S, M = -10
  Normalized Luminescence Counts (N=2): 1.19 and 0.0589 and 2.2073 and 0.4627 and 0.3116 and -0.1415
hTA1 C88/178S; C88S, C178S, M = -10.522
  Normalized Luminescence Counts (N=2): 1.077 and 0.285 and 1.1331 and 0.1606 and -2.86 and -1.652
hTA1 C88/178S; C88S, C178S, M = -11
  Normalized Luminescence Counts (N=2): 1.529 and 0.9635 and 0.2285 and -1.048 and -1.35 and -1.652
hTA1 C88/178S; C88S, C178S, M = -11.522
  Normalized Luminescence Counts (N=2): 1.19 and 1.246 and 0.4547 and -0.5946 and -1.199 (2×)
hTA1 C88/178S; C88S, C178S, M = -12
  Normalized Luminescence Counts (N=2): 0.3981 and 0.172 and 1.981 and -1.501 and -1.048 and -0.2925
hTA1 C88/178S; C88S, C178S, M = -12.522
  Normalized Luminescence Counts (N=2): 1.1331 and 2.773 and 1.19 and -0.1415 and -1.35 and -0.8967
hTA1 C88/178S; C88S, C178S, normalized (β-PEA = 100), each row is one independent experiment, 3 replicates
  Emax values, Mean: 85.7378 and 112.06
